Tested on: anesthetized open-chest dogs
Assay: Hemodynamics of anesthetized open-chest dogs, intravenous infusion
Type: in vivo, mongrel dogs
Conditions: 0.3 mg/kg iv
Procedure: The animals were anesthetized by intravenous injection of 30 mg/kg sodium pentobarbital, tracheally intubated, and mechanically ventilated with positive air pressure. Left thoracotomy was performed through the fourth intercostal space and the heart was suspended in a pericardial cradle, the aortic root was isolated and a probe of blood flow meter (12 or 14 mm in diameter) was fixed to measure the aortic blood flow as a representation of cardiac output (CO), the circumflex branch of left coronary artery was isolated and a probe of blood flow meter (2 or 2.5 mm in diameter) was fixed to measure the coronary blood flow (CBF). A polyethylene catheter filled with heparin physiological saline was inserted through cardiac apex into the left ventricle to measure the left ventricular pressure (LVP) and left ventricular end-diastolic pressure (LVEDP), Peak positive and peak negative first derivatives of the LVP (+ LVdp/dt and − LVdp/dt) were calculated with the Acknowledge software. The systolic blood pressure (SBP), diastolic blood pressure (DBP) and mean arterial pressure (MAP) were measured by polyethylene catheter via the femoral artery, ECG □ was measured by a AC-601G ECG amplifier. The above-mentioned analog signal was input into a data acquisition workstation (MP100, BIOPAC Systems, USA) to a computer running Acknowledge (version 3.7.1).
After surgery, various indexes before administration were recorded until the indexes were stable, and then intravenous infusion administration was conducted. Thirty dogs were divided into five groups (six dogs in each group), the experiment groups were given 0.15, 0.3, 0.6 mg/kg of ASP-[…] respectively, the normal control group was given 1 ml/kg of solvent, and the positive control group was given 0.3 mg/kg of astragaloside IV. The delivery volumes were 15 ml for each dog was and the delivery velocity was 1 ml/min. The indexes were recorded at 5, 10, 15, 20, 30, 45, 60, 90 and 120 mins after drug administration. At the end of experiment, the hearts were excised and weighted. The myocardial blood flow for per hectogram (CF), coronary resistance (CR), cardiac index (CI), left ventricular work (LVW) and total peripheral resistance (TPR) were calculated according to the following formulae: CF=CBF×[…]/heart weight CR=MAP/CF CI=CO/0.11×(body weight)^2/3 LVW=CO×(MAP−5)×1.052×0.0136 TPR=MAP×79.92/CO
Data are expressed as mean±SD ( x±s), the paired t-test was used to compare the significance between before and after administration, the unpaired t-test was adopted for comparison between groups.

Question: `CC(C)(O)[C@@H]1CC[C@](C)([C@H]2[C@@H](O)C[C@@]3(C)[C@@H]4C[C@H](O[C@@H]5O[C@H](CO)[C@@H](O)[C@H](O)[C@H]5O)[C@H]5C(C)(C)[C@@H](O[C@@H]6OC[C@@H](O)[C@H](O)[C@H]6O)CC[C@@]56C[C@@]46CC[C@]23C)O1` [astragaloside IV, reference compound] was tested. Which TPR (30 min after administration) did it give?
Answer: 5430 ± 1302 dyn · s/cm^5

Question: And the “TPR change vs before administration” value (30 min after administration)?
Answer: (206 ± 718) dyn · s/cm^5

Question: What about the dp/dt (30 min after administration) of the same compound?
Answer: 1140 ± 92 mmHg/s

Question: And the “dp/dt change vs before administration” value (30 min after administration)?
Answer: (85 ± 84) mmHg/s

Question: And the “−dp/dt” value (30 min after administration)?
Answer: −807 ± 124 mmHg/s

Question: And the “−dp/dt change vs before administration” value (30 min after administration)?
Answer: (28 ± 160) mmHg/s

Question: What about the CF (45 min after administration) of the same compound?
Answer: 54.0 ± 15.0 ml/min/100 g

Question: What about the “CF change vs before administration” value (45 min after administration) of the same compound?
Answer: (−2.9 ± 7.7) ml/min/100 g

Question: What about the CI (45 min after administration) of the same compound?
Answer: 2.08 ± 0.52 L/min/m^2

Question: And the “CI change vs before administration” value (45 min after administration)?
Answer: (−0.06 ± 0.19) L/min/m^2

Question: What about the CO (45 min after administration) of the same compound?
Answer: 1.17 ± 0.32 L/min

Question: And the “CO change vs before administration” value (45 min after administration)?
Answer: (−0.03 ± 0.10) L/min

Question: What about the CR (45 min after administration) of the same compound?
Answer: 1.44 ± 0.50 mmHg/ml/min/100 g

Question: And the “CR change vs before administration” value (45 min after administration)?
Answer: (0.04 ± 0.25) mmHg/ml/min/100 g

Question: What about the LVEDP (45 min after administration) of the same compound?
Answer: 0.9 ± 2.1 mmHg

Question: And the “LVEDP change vs before administration” value (45 min after administration)?
Answer: (−1.55 ± 1.42) mmHg

Question: What about the LVP (45 min after administration) of the same compound?
Answer: 98 ± 10 mmHg

Question: And the “LVP change vs before administration” value (45 min after administration)?
Answer: (−4.5 ± 11.7) mmHg

Question: And the LVW (45 min after administration)?
Answer: 1.14 ± 0.40 kg · m

Question: And the “LVW change vs before administration” value (45 min after administration)?
Answer: (−0.07 ± 0.11) kg · m

Question: And the TPR (45 min after administration)?
Answer: 5301 ± 1638 dyn · s/cm^5

Question: And the “TPR change vs before administration” value (45 min after administration)?
Answer: (77 ± 552) dyn · s/cm^5

Question: What about the dp/dt (45 min after administration) of the same compound?
Answer: 1124 ± 163 mmHg/s

Question: What about the “dp/dt change vs before administration” value (45 min after administration) of the same compound?
Answer: (69 ± 73) mmHg/s

Question: What about the “−dp/dt” value (45 min after administration) of the same compound?
Answer: −809 ± 137 mmHg/s

Question: And the “−dp/dt change vs before administration” value (45 min after administration)?
Answer: (26 ± 159) mmHg/s

Question: And the CF (60 min after administration)?
Answer: 53.7 ± 18.1 ml/min/100 g

Question: And the “CF change vs before administration” value (60 min after administration)?
Answer: (−3.3 ± 5.1) ml/min/100 g

Question: What about the CI (60 min after administration) of the same compound?
Answer: 2.10 ± 0.53 L/min/m^2

Question: What about the “CI change vs before administration” value (60 min after administration) of the same compound?
Answer: (−0.05 ± 0.11) L/min/m^2

Question: And the CO (60 min after administration)?
Answer: 1.18 ± 0.34 L/min

Question: What about the “CO change vs before administration” value (60 min after administration) of the same compound?
Answer: (−0.02 ± 0.06) L/min

Question: What about the CR (60 min after administration) of the same compound?
Answer: 1.51 ± 0.64 mmHg/ml/min/100 g

Question: And the “CR change vs before administration” value (60 min after administration)?
Answer: (0.10 ± 0.23) mmHg/ml/min/100 g

Question: What about the LVEDP (60 min after administration) of the same compound?
Answer: 0.8 ± 1.7 mmHg

Question: And the “LVEDP change vs before administration” value (60 min after administration)?
Answer: (−1.57 ± 1.39) mmHg

Question: And the LVP (60 min after administration)?
Answer: 98 ± 11 mmHg

Question: What about the “LVP change vs before administration” value (60 min after administration) of the same compound?
Answer: (−5.3 ± 15.3) mmHg

Question: What about the LVW (60 min after administration) of the same compound?
Answer: 1.16 ± 0.47 kg · m

Question: What about the “LVW change vs before administration” value (60 min after administration) of the same compound?
Answer: (−0.05 ± 0.09) kg · m

Question: What about the TPR (60 min after administration) of the same compound?
Answer: 5278 ± 1714 dyn · s/cm^5

Question: And the “TPR change vs before administration” value (60 min after administration)?
Answer: (54 ± 458) dyn · s/cm^5

Question: And the dp/dt (60 min after administration)?
Answer: 1098 ± 192 mmHg/s

Question: What about the “dp/dt change vs before administration” value (60 min after administration) of the same compound?
Answer: (43 ± 77) mmHg/s

Question: And the “−dp/dt” value (60 min after administration)?
Answer: −788 ± 126 mmHg/s

Question: What about the “−dp/dt change vs before administration” value (60 min after administration) of the same compound?
Answer: (48 ± 177) mmHg/s

Question: And the CF (90 min after administration)?
Answer: 57.4 ± 19.0 ml/min/100 g

Question: And the “CF change vs before administration” value (90 min after administration)?
Answer: (0.4 ± 9.5) ml/min/100 g

Question: What about the CI (90 min after administration) of the same compound?
Answer: 2.15 ± 0.52 L/min/m^2

Question: What about the “CI change vs before administration” value (90 min after administration) of the same compound?
Answer: (0.01 ± 0.08) L/min/m^2

Question: What about the CO (90 min after administration) of the same compound?
Answer: 1.21 ± 0.32 L/min

Question: What about the “CO change vs before administration” value (90 min after administration) of the same compound?
Answer: (0.00 ± 0.05) L/min

Question: And the CR (90 min after administration)?
Answer: 1.43 ± 0.83 mmHg/ml/min/100 g

Question: What about the “CR change vs before administration” value (90 min after administration) of the same compound?
Answer: (0.02 ± 0.51) mmHg/ml/min/100 g

Question: What about the LVEDP (90 min after administration) of the same compound?
Answer: 1.4 ± 0.5 mmHg

Question: And the “LVEDP change vs before administration” value (90 min after administration)?
Answer: (−0.97 ± 0.77) mmHg

Question: What about the LVP (90 min after administration) of the same compound?
Answer: 99 ± 15 mmHg

Question: And the “LVP change vs before administration” value (90 min after administration)?
Answer: (−4.2 ± 18.7) mmHg

Question: What about the LVW (90 min after administration) of the same compound?
Answer: 1.14 ± 0.44 kg · m

Question: What about the “LVW change vs before administration” value (90 min after administration) of the same compound?
Answer: (−0.07 ± 0.08) kg · m

Question: And the TPR (90 min after administration)?
Answer: 4952 ± 1517 dyn · s/cm^5

Question: And the “TPR change vs before administration” value (90 min after administration)?
Answer: (−272 ± 349) dyn · s/cm^5

Question: And the dp/dt (90 min after administration)?
Answer: 1100 ± 160 mmHg/s

Question: And the “dp/dt change vs before administration” value (90 min after administration)?
Answer: (45 ± 73) mmHg/s

Question: What about the “−dp/dt” value (90 min after administration) of the same compound?
Answer: −762 ± 139 mmHg/s

Question: What about the “−dp/dt change vs before administration” value (90 min after administration) of the same compound?
Answer: (74 ± 184) mmHg/s

Question: What about the CF (120 min after administration) of the same compound?
Answer: 55.6 ± 19.7 ml/min/100 g

Question: What about the “CF change vs before administration” value (120 min after administration) of the same compound?
Answer: (−1.4 ± 11.1) ml/min/100 g

Question: What about the CI (120 min after administration) of the same compound?
Answer: 2.14 ± 0.50 L/min/m^2

Question: What about the “CI change vs before administration” value (120 min after administration) of the same compound?
Answer: (0.00 ± 0.06) L/min/m^2

Question: And the CO (120 min after administration)?
Answer: 1.20 ± 0.30 L/min

Question: And the “CO change vs before administration” value (120 min after administration)?
Answer: (0.00 ± 0.03) L/min

Question: And the CR (120 min after administration)?
Answer: 1.51 ± 0.82 mmHg/ml/min/100 g

Question: And the “CR change vs before administration” value (120 min after administration)?
Answer: (0.11 ± 0.41) mmHg/ml/min/100 g

Question: What about the LVEDP (120 min after administration) of the same compound?
Answer: 1.8 ± 0.8 mmHg

Question: And the “LVEDP change vs before administration” value (120 min after administration)?
Answer: (−0.66 ± 0.47) mmHg

Question: What about the LVP (120 min after administration) of the same compound?
Answer: 97 ± 14 mmHg

Question: And the “LVP change vs before administration” value (120 min after administration)?
Answer: (−5.5 ± 19.3) mmHg

Question: And the LVW (120 min after administration)?
Answer: 1.17 ± 0.45 kg · m

Question: What about the “LVW change vs before administration” value (120 min after administration) of the same compound?
Answer: (−0.04 ± 0.05) kg · m

Question: And the TPR (120 min after administration)?
Answer: 5046 ± 1440 dyn · s/cm^5

Question: And the “TPR change vs before administration” value (120 min after administration)?
Answer: (−178 ± 394) dyn · s/cm^5

Question: What about the dp/dt (120 min after administration) of the same compound?
Answer: 1088 ± 182 mmHg/s

Question: What about the “dp/dt change vs before administration” value (120 min after administration) of the same compound?
Answer: (33 ± 59) mmHg/s

Question: What about the “−dp/dt” value (120 min after administration) of the same compound?
Answer: −748 ± 167 mmHg/s

Question: And the “−dp/dt change vs before administration” value (120 min after administration)?
Answer: (88 ± 215) mmHg/s

Question: What about the CF (before administration) of the same compound?
Answer: 57 ± 16.1 ml/min/100 g

Question: And the CI (before administration)?
Answer: 2.14 ± 0.52 L/min/m^2

Question: And the CO (before administration)?
Answer: 1.20 ± 0.32 L/min

Question: What about the CR (before administration) of the same compound?
Answer: 1.40 ± 0.49 mmHg/ml/min/100 g

Question: And the LVEDP (before administration)?
Answer: 2.4 ± 1.1 mmHg

Question: And the LVP (before administration)?
Answer: 103 ± 12 mmHg

Question: What about the LVW (before administration) of the same compound?
Answer: 1.21 ± 0.44 kg · m

Question: And the TPR (before administration)?
Answer: 5224 ± 1465 dyn · s/cm^5

Question: And the dp/dt (before administration)?
Answer: 1055 ± 157 mmHg/s

Question: What about the “−dp/dt” value (before administration) of the same compound?
Answer: −836 ± 194 mmHg/s

Question: And the Heart rate (vs pre-administration)?
Answer: decreased slightly

Question: And the blood pressure (vs pre-administration)?
Answer: no significant change

Question: And the “CF and CR” value (within 120 min)?
Answer: no significant changes

From patent US8835134B2, “Cycloastragenol monoglucoside, preparation, pharmaceutical composition and application thereof” (Tianjin Institute of Pharmaceutical Research, priority 2007, dated 2014)
